Experimental findings from ChEMBL document CHEMBL4613308, “Screen of Unfocused Libraries Identified Compounds with Direct or Synergistic Antibacterial Activity” (ACS Med Chem Lett, 2020) are described below.

Values after ≈ are worked out from the molar mass of the structure shown.

Common to all, as to format: functional
Experiment [1] has as its system Escherichia coli. The experiment can be described thus: Antibacterial activity against Escherichia coli CCUG assessed as bacterial growth inhibition by agar diffusion assay.
The subject of experiment [2] is Acinetobacter baumannii. Kind of experiment: Synergistic antibacterial activity against Acinetobacter baumannii ATCC 17978 in presence of 0.5 times MIC of colistin by microdilution broth method.
Experiment [3] has as its system Escherichia coli. The experiment can be described thus: Synergistic antibacterial activity against Escherichia coli CCUG in presence of 0.5 times MIC of colistin by microdilution broth method.
Experiment [4] deals with Klebsiella pneumoniae. The experiment can be described thus: Antibacterial activity against Klebsiella pneumoniae ATCC 13833 assessed as bacterial growth inhibition by agar diffusion assay.
For experiment [5], the system named is Acinetobacter baumannii. The experiment can be described thus: Potentiation of colistin-induced antibacterial activity against Acinetobacter baumannii ATCC 17978 assessed as fold reduction in colistin MIC by microdilution broth method relative to colistin MIC.
Experiment [6] deals with Escherichia coli. Kind of experiment: Potentiation of colistin-induced antibacterial activity against Escherichia coli CCUG assessed as fold reduction in colistin MIC in by microdilution broth method relative to colistin MIC.
For experiment [7], the system named is Acinetobacter baumannii. Kind of experiment: Antibacterial activity against Acinetobacter baumannii ATCC 17978 assessed as bacterial growth inhibition by agar diffusion assay.
The subject of experiment [8] is Klebsiella pneumoniae. The experiment can be described thus: Synergistic antibacterial activity against Klebsiella pneumoniae ATCC 13833 in presence of 0.5 times MIC of colistin by microdilution broth method.
The test system of experiment [9] is Pseudomonas aeruginosa. The experiment can be described thus: Antibacterial activity against Pseudomonas aeruginosa ATCC 27853 assessed as bacterial growth inhibition by agar diffusion assay.
The subject of experiment [10] is Klebsiella pneumoniae. Kind of experiment: Potentiation of colistin-induced antibacterial activity against Klebsiella pneumoniae ATCC 13833 assessed as fold reduction in colistin MIC by microdilution broth method relative to colistin MIC.
Experiment [11] deals with Pseudomonas aeruginosa. The experiment can be described thus: Antibacterial activity against multidrug-resistant Pseudomonas aeruginosa VR-143/97 clinical isolate assessed as bacterial growth inhibition by agar diffusion assay.
Experiment [12] relates to Acinetobacter baumannii. The experiment can be described thus: Antibacterial activity against Acinetobacter baumannii AC-54/97 clinical isolate assessed as bacterial growth inhibition by agar diffusion assay.
In the next experiment the test system is Enterococcus faecalis. Kind of experiment: Antibacterial activity against Enterococcus faecalis ATCC 29212 assessed as bacterial growth inhibition by agar diffusion assay.
Experiment [13] relates to Escherichia coli. The experiment can be described thus: Antibacterial activity against multidrug-resistant Escherichia coli Z25 clinical isolate assessed as bacterial growth inhibition by agar diffusion assay.
A further experiment has as its system Streptococcus pyogenes. The experiment can be described thus: Antibacterial activity against Streptococcus pyogenes ATCC 12344 assessed as bacterial growth inhibition by agar diffusion assay.
The next experiment concerns Staphylococcus aureus. Kind of experiment: Antibacterial activity against Staphylococcus aureus ATCC 25923 assessed as bacterial growth inhibition by agar diffusion assay.
Experiment [14] relates to Enterobacter cloacae. The experiment can be described thus: Antibacterial activity against multidrug-resistant Enterobacter cloacae VA 417/02 clinical isolate assessed as bacterial growth inhibition by agar diffusion assay.
Experiment [15] relates to Enterobacter cloacae. The experiment can be described thus: Antibacterial activity against multidrug-resistant Enterobacter cloacae Z19 clinical isolate assessed as bacterial growth inhibition by agar diffusion assay.
The next experiment deals with Bacillus spizizenii. Kind of experiment: Antibacterial activity against Bacillus subtilis ATCC 6633 assessed as bacterial growth inhibition by agar diffusion assay.

With `CCCCCCc1ccc(O)cc1OCCCCCCCCCCC(=O)NCCO`, the MIC in the experiment on Escherichia coli [1] is more than 512 µg/mL; in the experiment on Acinetobacter baumannii [2] it was 16 µg/mL; with Escherichia coli [3], 4 µg/mL; in the experiment with Klebsiella pneumoniae [4] it was more than 512 µg/mL; in the experiment on Acinetobacter baumannii [7] it was more than 512 µg/mL; in the experiment with Klebsiella pneumoniae [8], 8 µg/mL. For the same compound, in the experiment with Pseudomonas aeruginosa [9], the minimal inhibitory concentration (MIC) is more than 512 µg/mL. The log2FC in the experiment on Acinetobacter baumannii [5] was 5; in the experiment on Escherichia coli [6], 7; in the experiment with Klebsiella pneumoniae [10], 6.

For the compound `CCCCCCc1ccc(O)cc1OCCCCCC(=O)NCCO`, the minimal inhibitory concentration (MIC) in the experiment on Escherichia coli [1] was more than 512 µg/mL; with Acinetobacter baumannii [2], 8 µg/mL; in the experiment on Klebsiella pneumoniae [4] it was more than 512 µg/mL; with Acinetobacter baumannii [7], more than 512 µg/mL; in the experiment on Pseudomonas aeruginosa [9], more than 512 µg/mL. In the experiment with Acinetobacter baumannii [5], the log2FC is listed as 6.

As to `CCCCCCc1ccc(OCCCCCCCC(=O)NCCO)cc1O`, the MIC with Escherichia coli [1] is more than 512 µg/mL; in the experiment with Acinetobacter baumannii [2] it was 16 µg/mL; in the experiment with Escherichia coli [3], 8 µg/mL; in the experiment on Klebsiella pneumoniae [4] it was more than 512 µg/mL; in the experiment on Acinetobacter baumannii [7] it was more than 512 µg/mL; with Klebsiella pneumoniae [8], 4 µg/mL. Besides, the minimum inhibitory concentration (MIC) with Pseudomonas aeruginosa [9] is more than 512 µg/mL. Also, the log2FC was determined as 5 in the experiment on Acinetobacter baumannii [5], 6 in the experiment with Escherichia coli [6] and 7 in the experiment on Klebsiella pneumoniae [10].

Regarding `CCOC(=O)c1c(O)nc2c(C)cccc2c1O`, the MIC is more than 512 µg/mL in the experiment on Escherichia coli [1]; 64 µg/mL with Acinetobacter baumannii [2]; 64 µg/mL in the experiment with Escherichia coli [3]; more than 512 µg/mL with Klebsiella pneumoniae [4]; more than 512 µg/mL in the experiment on Acinetobacter baumannii [7]; 16 µg/mL in the experiment with Klebsiella pneumoniae [8]. Further, in the experiment with Pseudomonas aeruginosa [9], the MIC was more than 512 µg/mL. Besides, the log2FC was found to be 3 with Acinetobacter baumannii [5], 3 in the experiment on Escherichia coli [6] and 5 in the experiment with Klebsiella pneumoniae [10].

For the compound `CCCCCc1cc(O)cc(OCCCCCCCCCCC(=O)NC(CO)CO)c1`, the MIC in the experiment with Escherichia coli [1] was more than 512 µg/mL; in the experiment with Acinetobacter baumannii [2] it was 4 µg/mL; in the experiment with Escherichia coli [3], 8 µg/mL; with Klebsiella pneumoniae [4], more than 512 µg/mL; with Acinetobacter baumannii [7], more than 512 µg/mL; with Klebsiella pneumoniae [8] it was 8 µg/mL. In addition, the minimal inhibitory concentration (MIC) in the experiment with Pseudomonas aeruginosa [9] is more than 512 µg/mL. For the same compound, the values for the log2FC with Acinetobacter baumannii [5], in the experiment with Escherichia coli [6] and with Klebsiella pneumoniae [10] were 7, 6 and 6, respectively.

On to `CC(C)(C)n1cc(C(=O)O)c(=O)c2cc(F)c(-c3ccc(F)cc3F)cc21`, for which the MIC in the experiment on Escherichia coli [1] was 16 µg/mL (≈ 42.6 µM); in the experiment on Pseudomonas aeruginosa [11], more than 256 µg/mL; in the experiment with Acinetobacter baumannii [12] it was more than 256 µg/mL; with Enterococcus faecalis it was 2 µg/mL (≈ 5.33 µM); in the experiment on Klebsiella pneumoniae [4], 4 µg/mL (≈ 10.7 µM); in the experiment on Escherichia coli [13] it was more than 256 µg/mL. The minimum inhibitory concentration (MIC) was 1 µg/mL (≈ 2.66 µM) in the experiment on Streptococcus pyogenes; 2 µg/mL (≈ 5.33 µM) in the experiment on Staphylococcus aureus; 4 µg/mL (≈ 10.7 µM) in the experiment on Enterobacter cloacae [14]; more than 256 µg/mL in the experiment with Enterobacter cloacae [15]; 8 µg/mL (≈ 21.3 µM) in the experiment with Acinetobacter baumannii [7]; 64 µg/mL (≈ 171 µM) in the experiment with Pseudomonas aeruginosa [9]. In the experiment with Bacillus spizizenii, the MIC is not above 0.12 µg/mL.

Regarding `O=C(O)c1cn(C2CC2)c2cc(Br)c(F)cc2c1=O`, the MIC in the experiment on Escherichia coli [1] is 0.25 µg/mL (≈ 0.767 µM); in the experiment with Pseudomonas aeruginosa [11] it was 256 µg/mL (≈ 785 µM); in the experiment on Acinetobacter baumannii [12], 256 µg/mL (≈ 785 µM); with Enterococcus faecalis, 4 µg/mL (≈ 12.3 µM); in the experiment on Klebsiella pneumoniae [4], not above 0.12 µg/mL; in the experiment with Escherichia coli [13] it was more than 256 µg/mL. In addition, the minimum inhibitory concentration (MIC) in the experiment with Streptococcus pyogenes is 4 µg/mL (≈ 12.3 µM); in the experiment with Staphylococcus aureus it was 4 µg/mL (≈ 12.3 µM); in the experiment with Enterobacter cloacae [14] it was 0.25 µg/mL (≈ 0.767 µM); with Enterobacter cloacae [15] it was more than 256 µg/mL; with Acinetobacter baumannii [7] it was 0.5 µg/mL (≈ 1.53 µM); with Pseudomonas aeruginosa [9], 8 µg/mL (≈ 24.5 µM). For the same compound, the minimal inhibitory concentration (MIC) in the experiment with Bacillus spizizenii is not above 0.12 µg/mL.
